Reference: US20210177814A1, “USE OF GUANABENZ OR DERIVATES THEREOF FOR THE TREATMENT OF TYPE I IFN-DEPENDENT PATHOLOGIES” (INSERM (Institut National de la Santé et de la Recherche …, priority 2018, published 2021)

Molecular target: T1, hTLR3 (Homo sapiens, UniProt O15455)
T1 construct: expressed in transfected cells; host or cells: HEK-Blue (HEK 293) hTLR3 reporter cells
T1 sequence (O15455 24-904): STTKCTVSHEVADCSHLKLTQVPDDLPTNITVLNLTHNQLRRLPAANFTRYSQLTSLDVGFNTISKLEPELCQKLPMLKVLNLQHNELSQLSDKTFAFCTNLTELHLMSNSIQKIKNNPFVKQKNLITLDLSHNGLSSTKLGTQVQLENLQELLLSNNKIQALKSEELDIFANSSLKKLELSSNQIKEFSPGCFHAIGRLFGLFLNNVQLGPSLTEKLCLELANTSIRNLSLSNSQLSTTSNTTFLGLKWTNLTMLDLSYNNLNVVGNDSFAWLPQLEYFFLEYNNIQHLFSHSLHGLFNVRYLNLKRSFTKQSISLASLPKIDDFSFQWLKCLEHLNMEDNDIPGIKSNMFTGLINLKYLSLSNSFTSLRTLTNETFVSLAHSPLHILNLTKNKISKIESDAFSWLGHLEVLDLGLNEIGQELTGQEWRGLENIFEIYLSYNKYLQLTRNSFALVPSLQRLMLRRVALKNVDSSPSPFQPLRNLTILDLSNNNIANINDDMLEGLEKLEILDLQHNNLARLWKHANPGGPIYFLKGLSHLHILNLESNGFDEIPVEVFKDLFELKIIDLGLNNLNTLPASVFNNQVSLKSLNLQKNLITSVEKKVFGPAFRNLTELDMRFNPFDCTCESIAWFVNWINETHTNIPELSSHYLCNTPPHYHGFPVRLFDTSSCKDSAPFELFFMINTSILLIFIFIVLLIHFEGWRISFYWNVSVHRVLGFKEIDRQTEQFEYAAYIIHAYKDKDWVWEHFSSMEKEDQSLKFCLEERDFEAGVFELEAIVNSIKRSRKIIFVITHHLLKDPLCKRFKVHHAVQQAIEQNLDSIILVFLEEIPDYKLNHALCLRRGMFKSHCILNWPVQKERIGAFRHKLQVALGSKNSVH
Test: HEK-Blue hTLR3 SEAP reporter assay
Format: cell-based
Details: 10 μg/mL poly I:C LMW, GBZ 50 μM
Experimental: FIG. 1: Guanabenz inhibits TLR3 and TLR9 activation in mouse Flt3-L DCs and human blood pDCs. A) Sorted bone marrow derived Flt3L-DCs were activated for 6 h with 10 μg/mL poly I:C LMW (TLR3 in DC1) or 1 μM ODN 1585 (TLR9 in pDCs). GBZ was added at 50 μM and inhibited IFN-β and Interleukin-6 (IL-6) production in activated cells. B) hTLR4, hTLR3, hTLR9 and hTLR7 expressed in the reporter HEK-Blue™ cells are inhibited by GBZ. TLR-expressing HEK-Blue™ cells were respectively activated with 100 ng/mL LPS, 10 μg/mL poly I:C LMW, 2.5 μM ODN 2006 or 5 μg/mL imiquimod, respectively. GBZ was added at 50 μM. TLR activity was measured indirectly through SEAP activity as absorbance at 405 nm. […] Protein concentration of IFN-α and TNF-α secreted were measured at the indicated time points or at 16 h. […]
Given the efficiency of GBZ on mouse TLR3 and TLR9, we turned to human TLRs, in order to extend the relevance of our observations. GBZ-mediated inhibition was first evaluated on NF-kB signaling by monitoring secreted alkaline phosphatase (SEAP) reporter levels in HEK-293 cells expressing TLR3, TLR4, TLR7, TLR9 (FIG. 1B). […] The functionality of the TLR9 transduction pathway was next evaluated by using phospho-flow detection of 40S ribosomal protein S6 (rpS6) phosphorylation, a well characterized early signaling event down-stream of TLR activation by LPS or viruses.

NC(N)=N/N=C/c1c(Cl)cccc1Cl [GBZ, 2-(2,6-dichlorobenzylidene)-hydrazinecarboximidamide]
TLR3-dependent activation of the SEAP reporter: inhibited
